Data: US9212182B2, “Bicyclic sulfonamide compounds as sodium channel inhibitors” (AMGEN INC., priority 2013, dated 2015)

Biological target: Nav 1.7 (Homo sapiens (Human), UniProt Q15858)
Assay: in-vitro Nav 1.7 PX (IC50)
Format: cell-based
[1] = in-vitro Nav 1.7 PX data (PatchXpress)

Sequence of Nav 1.7 (Q15858 whole entry): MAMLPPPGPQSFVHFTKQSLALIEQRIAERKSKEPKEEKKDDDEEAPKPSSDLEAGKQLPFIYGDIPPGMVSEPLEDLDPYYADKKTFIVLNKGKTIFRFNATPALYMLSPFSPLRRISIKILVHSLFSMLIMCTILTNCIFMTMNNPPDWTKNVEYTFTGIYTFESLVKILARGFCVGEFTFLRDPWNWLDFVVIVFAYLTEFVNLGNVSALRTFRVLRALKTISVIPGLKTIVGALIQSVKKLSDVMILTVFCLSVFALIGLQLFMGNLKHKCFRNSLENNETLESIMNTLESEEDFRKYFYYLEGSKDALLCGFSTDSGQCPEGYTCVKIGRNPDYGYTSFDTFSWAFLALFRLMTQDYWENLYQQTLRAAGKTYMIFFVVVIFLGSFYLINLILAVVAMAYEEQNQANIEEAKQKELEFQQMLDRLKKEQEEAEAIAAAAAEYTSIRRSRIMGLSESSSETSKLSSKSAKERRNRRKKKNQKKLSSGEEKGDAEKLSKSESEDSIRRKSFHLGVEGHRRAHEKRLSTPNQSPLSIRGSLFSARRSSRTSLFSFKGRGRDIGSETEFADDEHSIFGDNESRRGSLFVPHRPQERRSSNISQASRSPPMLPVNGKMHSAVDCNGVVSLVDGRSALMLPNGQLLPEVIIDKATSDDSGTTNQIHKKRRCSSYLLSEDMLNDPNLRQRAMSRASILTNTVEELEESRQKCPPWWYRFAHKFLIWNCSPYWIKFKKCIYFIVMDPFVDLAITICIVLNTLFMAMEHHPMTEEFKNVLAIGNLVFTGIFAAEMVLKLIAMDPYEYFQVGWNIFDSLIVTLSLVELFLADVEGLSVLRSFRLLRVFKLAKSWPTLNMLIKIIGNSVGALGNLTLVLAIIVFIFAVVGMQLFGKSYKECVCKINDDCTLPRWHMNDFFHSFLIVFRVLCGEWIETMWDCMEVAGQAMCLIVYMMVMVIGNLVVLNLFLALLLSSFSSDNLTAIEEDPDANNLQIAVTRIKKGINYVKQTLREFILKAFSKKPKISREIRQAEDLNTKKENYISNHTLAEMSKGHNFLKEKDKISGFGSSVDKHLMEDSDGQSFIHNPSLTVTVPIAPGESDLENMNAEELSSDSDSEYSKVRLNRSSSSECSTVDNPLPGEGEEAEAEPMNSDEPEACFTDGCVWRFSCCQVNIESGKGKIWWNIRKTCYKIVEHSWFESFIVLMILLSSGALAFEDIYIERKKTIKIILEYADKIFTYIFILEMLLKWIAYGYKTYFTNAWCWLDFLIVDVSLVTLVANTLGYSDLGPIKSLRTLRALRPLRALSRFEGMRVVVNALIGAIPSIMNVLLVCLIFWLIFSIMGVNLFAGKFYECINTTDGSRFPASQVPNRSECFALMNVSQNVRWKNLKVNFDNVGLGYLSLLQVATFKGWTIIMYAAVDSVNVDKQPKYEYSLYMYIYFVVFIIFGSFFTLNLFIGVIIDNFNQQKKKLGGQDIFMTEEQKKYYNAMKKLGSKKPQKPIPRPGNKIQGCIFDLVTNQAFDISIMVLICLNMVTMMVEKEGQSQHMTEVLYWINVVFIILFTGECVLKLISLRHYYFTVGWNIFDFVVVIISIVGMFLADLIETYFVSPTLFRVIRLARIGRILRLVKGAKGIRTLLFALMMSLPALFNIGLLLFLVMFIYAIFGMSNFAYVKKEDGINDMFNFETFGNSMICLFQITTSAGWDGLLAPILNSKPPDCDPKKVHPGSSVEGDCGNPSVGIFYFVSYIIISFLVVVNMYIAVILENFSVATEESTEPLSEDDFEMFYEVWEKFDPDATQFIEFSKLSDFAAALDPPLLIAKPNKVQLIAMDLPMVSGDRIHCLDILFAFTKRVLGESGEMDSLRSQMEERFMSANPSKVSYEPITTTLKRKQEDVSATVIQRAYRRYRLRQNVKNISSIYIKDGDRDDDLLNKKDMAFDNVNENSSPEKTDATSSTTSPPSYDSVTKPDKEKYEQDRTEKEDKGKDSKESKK

Row | IC50 [1] [nM] | IC50 (in-vitro Nav 1.7 PX data) [nM] | SMILES
1 | 49 |  | COc1cc(-c2cc(C)ccc2F)ccc1-n1c(=O)ccc2cc(S(=O)(=O)Nc3ccon3)ccc21 [Example 1032, 1-(2′-fluoro-3-methoxy-5′-methyl-4-biphenylyl)-N-3-isoxazolyl-2-oxo-1,2-dihydro-6-quinolinesulfonamide]
2 | 64 |  | COc1ccc(F)c(-c2ccc(-n3c(=O)ccc4cc(S(=O)(=O)Nc5ccon5)ccc43)c(OC)c2)c1 [Example 1033, 1-(2′-fluoro-3,5′-dimethoxy-4-biphenylyl)-N-3-isoxazolyl-2-oxo-1,2-dihydro-6-quinolinesulfonamide]
3 | 10 |  | COc1cc(-c2cc(Cl)ccc2F)ccc1-n1c(=O)ccc2cc(S(=O)(=O)Nc3ccon3)ccc21 [Example 1034, 1-(5′-chloro-2′-fluoro-3-methoxy-4-biphenylyl)-N-3-isoxazolyl-2-oxo-1,2-dihydro-6-quinolinesulfonamide]
4 | 20 |  | COc1ccc(C)cc1-c1ccc(-n2c(=O)ccc3cc(S(=O)(=O)Nc4ccon4)ccc32)c(OC)c1 [Example 1036, 1-(2′,3-dimethoxy-5′-methyl-4-biphenylyl)-N-3-isoxazolyl-2-oxo-1,2-dihydro-6-quinolinesulfonamide]
5 | 24 |  | COc1ccc(C)c(-c2ccc(-n3c(=O)ccc4cc(S(=O)(=O)Nc5ccon5)ccc43)c(OC)c2)c1 [Example 1037, 1-(3,5′-dimethoxy-2′-methyl-4-biphenylyl)-N-3-isoxazolyl-2-oxo-1,2-dihydro-6-quinolinesulfonamide]
6 | 58 |  | COc1cc(-c2ccc(-n3c(=O)ccc4cc(S(=O)(=O)Nc5cccnn5)ccc43)c(OC)c2)ccc1Cl [Example 1038, 1-(4′-chloro-3,3′-dimethoxy-4-biphenylyl)-2-oxo-N-3-pyridazinyl-1,2-dihydro-6-quinolinesulfonamide]
7 | 149 |  | COc1cc(-c2ccc(-n3c(=O)ccc4cc(S(=O)(=O)Nc5ncco5)ccc43)c(OC)c2)ccc1Cl [Example 1039, 1-(4′-chloro-3,3′-dimethoxy-4-biphenylyl)-N-1,3-oxazol-2-yl-2-oxo-1,2-dihydro-6-quinolinesulfonamide]
8 | 31 |  | COc1cc(-c2cc(OC)c(-n3c(=O)ccc4cc(S(=O)(=O)Nc5ncco5)ccc43)cc2F)ccc1Cl [Example 1040, 1-(4′-chloro-2-fluoro-3′,5-dimethoxy-4-biphenylyl)-N-1,3-oxazol-2-yl-2-oxo-1,2-dihydro-6-quinolinesulfonamide]
9 | 195 |  | O=c1ccc2cc(S(=O)(=O)Nc3cccnn3)ccc2n1-c1ccc(-c2cc(F)cc(F)c2)cc1C1CC1 [Example 1042, 1-(3-cyclopropyl-3′,5′-difluoro-4-biphenylyl)-2-oxo-N-3-pyridazinyl-1,2-dihydro-6-quinolinesulfonamide]
10 | 2950 |  | O=c1ccc2cc(S(=O)(=O)Nc3cnccn3)ccc2n1-c1ccc(-c2cc(F)cc(F)c2)cc1C1CC1 [Example 1044, 1-(3-cyclopropyl-3′,5′-difluoro-4-biphenylyl)-2-oxo-N-2-pyrazinyl-1,2-dihydro-6-quinolinesulfonamide]
11 | 112 |  | O=c1ccc2cc(S(=O)(=O)Nc3nncs3)ccc2n1-c1ccc(-c2cc(F)cc(F)c2)cc1C1CC1 [Example 1046, 1-(3-cyclopropyl-3′,5′-difluoro-4-biphenylyl)-2-oxo-N-1,3,4-thiadiazol-2-yl-1,2-dihydro-6-quinolinesulfonamide]
12 | 6500 |  | O=c1ccc2cc(S(=O)(=O)Nc3nncs3)ccc2n1-c1ccc(-c2cc(F)cc(F)c2)cc1C1CC1 [Example 1047, 1-(3-cyclopropyl-3′,5′-difluoro-4-biphenylyl)-2-oxo-N-1,3,4-thiadiazol-2-yl-1,2-dihydro-6-quinolinesulfonamide]
13 | 15 |  | O=c1ccc2cc(S(=O)(=O)Nc3ncns3)ccc2n1-c1ccc(-c2cc(F)cc(F)c2)cc1C1CC1 [Example 1048, 1-(3-cyclopropyl-3′,5′-difluoro-4-biphenylyl)-2-oxo-N-1,2,4-thiadiazol-5-yl-1,2-dihydro-6-quinolinesulfonamide]
14 | 912 |  | O=c1ccc2cc(S(=O)(=O)Nc3ncns3)ccc2n1-c1ccc(-c2cc(F)cc(F)c2)cc1C1CC1 [Example 1049, 1-(3-cyclopropyl-3′,5′-difluoro-4-biphenylyl)-2-oxo-N-1,2,4-thiadiazol-5-yl-1,2-dihydro-6-quinolinesulfonamide]
15 | 1430 |  | COc1cc(Br)ccc1-n1c(=O)ccc2cc(S(=O)(=O)Nc3cccnn3)ccc21 [Example 1050, 1-(4-bromo-2-methoxyphenyl)-2-oxo-N-3-pyridazinyl-1,2-dihydro-6-quinolinesulfonamide]
16 | 54 |  | COc1cc(-c2ccccc2C(F)(F)F)ccc1-n1c(=O)ccc2cc(S(=O)(=O)Nc3ccon3)ccc21 [Example 1052, N-3-isoxazolyl-1-(3-methoxy-2′-(trifluoromethyl)-4-biphenylyl)-2-oxo-1,2-dihydro-6-quinolinesulfonamide]
17 | 16 |  | COc1cc(-c2cc(C)ccc2C)ccc1-n1c(=O)ccc2cc(S(=O)(=O)Nc3ccon3)ccc21 [Example 1055, N-3-isoxazolyl-1-(3-methoxy-2′,5′-dimethyl-4-biphenylyl)-2-oxo-1,2-dihydro-6-quinolinesulfonamide]

Row | IC50 [1] [nM] | IC50 (in-vitro Nav 1.7 PX data) [nM] | SMILES
18 | 25 |  | COc1cc(-c2cccc(C)c2C)ccc1-n1c(=O)ccc2cc(S(=O)(=O)Nc3ccon3)ccc21 [Example 1056, N-3-isoxazolyl-1-(3-methoxy-2′,3′-dimethyl-4-biphenylyl)-2-oxo-1,2-dihydro-6-quinolinesulfonamide]
19 | 11 |  | COc1cc(-c2cccc(Cl)c2F)ccc1-n1c(=O)ccc2cc(S(=O)(=O)Nc3ccon3)ccc21 [Example 1057, 1-(3′-chloro-2′-fluoro-3-methoxy-4-biphenylyl)-N-3-isoxazolyl-2-oxo-1,2-dihydro-6-quinolinesulfonamide]
20 | 38 |  | COc1cc(-c2cccc(F)c2Cl)ccc1-n1c(=O)ccc2cc(S(=O)(=O)Nc3ccon3)ccc21 [Example 1058, 1-(2′-chloro-3′-fluoro-3-methoxy-4-biphenylyl)-N-3-isoxazolyl-2-oxo-1,2-dihydro-6-quinolinesulfonamide]
21 | 32 |  | COc1cc(-c2cccc(C)c2Cl)ccc1-n1c(=O)ccc2cc(S(=O)(=O)Nc3ccon3)ccc21 [Example 1059, 1-(2′-chloro-3-methoxy-3′-methyl-4-biphenylyl)-N-3-isoxazolyl-2-oxo-1,2-dihydro-6-quinolinesulfonamide]
22 | 28 |  | COc1cc(-c2ccc(C)cc2Cl)ccc1-n1c(=O)ccc2cc(S(=O)(=O)Nc3ccon3)ccc21 [Example 1060, 1-(2′-chloro-3-methoxy-4′-methyl-4-biphenylyl)-N-3-isoxazolyl-2-oxo-1,2-dihydro-6-quinolinesulfonamide]
23 | 61 |  | COc1ccc(-c2ccc(-n3c(=O)ccc4cc(S(=O)(=O)Nc5ccon5)ccc43)c(OC)c2)c(Cl)c1 [Example 1061, 1-(2′-chloro-3,4′-dimethoxy-4-biphenylyl)-N-3-isoxazolyl-2-oxo-1,2-dihydro-6-quinolinesulfonamide]
24 | 98 |  | COc1cc(C)ccc1-c1ccc(-n2c(=O)ccc3cc(S(=O)(=O)Nc4ccon4)ccc32)c(OC)c1 [Example 1063, 1-(2′,3-dimethoxy-4′-methyl-4-biphenylyl)-N-3-isoxazolyl-2-oxo-1,2-dihydro-6-quinolinesulfonamide]
25 | 13 |  | COc1cc(-c2cc(F)c(F)cc2C)ccc1-n1c(=O)ccc2cc(S(=O)(=O)Nc3ccon3)ccc21 [Example 1064, 1-(4′,5′-difluoro-3-methoxy-2′-methyl-4-biphenylyl)-N-3-isoxazolyl-2-oxo-1,2-dihydro-6-quinolinesulfonamide]
26 | 9 |  | COc1cc(-c2cc(C)c(F)cc2F)ccc1-n1c(=O)ccc2cc(S(=O)(=O)Nc3ccon3)ccc21 [Example 1065, 1-(2′,4′-difluoro-3-methoxy-5′-methyl-4-biphenylyl)-N-3-isoxazolyl-2-oxo-1,2-dihydro-6-quinolinesulfonamide]
27 | 6 |  | COc1cc(-c2cc(Cl)ccc2C)ccc1-n1c(=O)ccc2cc(S(=O)(=O)Nc3ncco3)ccc21 [Example 1067, 1-(5′-chloro-3-methoxy-2′-methyl-4-biphenylyl)-N-1,3-oxazol-2-yl-2-oxo-1,2-dihydro-6-quinolinesulfonamide]
28 | 75 |  | COc1cc(-c2cc(F)cc(C(F)F)c2)ccc1-n1c(=O)ccc2cc(S(=O)(=O)Nc3ccon3)ccc21 [Example 1068, 1-(3′-(difluoromethyl)-5′-fluoro-3-methoxy-4-biphenylyl)-N-3-isoxazolyl-2-oxo-1,2-dihydro-6-quinolinesulfonamide]
29 | 71 |  | COc1cc(-c2ccc(F)cc2)ccc1-n1c(=O)ccc2cc(S(=O)(=O)Nc3ccon3)ccc21 [Example 1069, 1-(4′-fluoro-3-methoxy-4-biphenylyl)-N-3-isoxazolyl-2-oxo-1,2-dihydro-6-quinolinesulfonamide]
30 |  | 12 | COc1nc(-c2cc(F)cc(Cl)c2)c(Cl)cc1-n1c(=O)ccc2cc(S(=O)(=O)Nc3ccon3)ccc21 [Example 1070, 1-(5-chloro-6-(3-chloro-5-fluorophenyl)-2-methoxy-3-pyridinyl)-N-3-isoxazolyl-2-oxo-1,2-dihydro-6-quinolinesulfonamide]
31 |  | 348 | COc1nc(-c2cc(F)cc(Cl)c2)c(Cl)cc1-n1c(=O)ccc2cc(S(=O)(=O)Nc3ccon3)ccc21 [Example 1071, 1-(5-chloro-6-(3-chloro-5-fluorophenyl)-2-methoxy-3-pyridinyl)-N-3-isoxazolyl-2-oxo-1,2-dihydro-6-quinolinesulfonamide]
32 |  | 18 | COc1cc(-c2ccc(Cl)c(C)c2)c(F)cc1-n1c(=O)ccc2cc(S(=O)(=O)Nc3cnsn3)ccc21 [Example 1072, 1-(4′-chloro-2-fluoro-5-methoxy-3′-methyl-4-biphenylyl)-2-oxo-N-1,2,5-thiadiazol-3-yl-1,2-dihydro-6-quinolinesulfonamide]
33 |  | 23 | COc1cc(-c2ccc(Cl)c(C)c2)c(F)cc1-n1c(=O)ccc2cc(S(=O)(=O)Nc3ccsn3)ccc21 [Example 1073, 1-(4′-chloro-2-fluoro-5-methoxy-3′-methyl-4-biphenylyl)-N-3-isothiazolyl-2-oxo-1,2-dihydro-6-quinolinesulfonamide]
